Test results as given in publication PMC8360279, “Combination of Polygoni Multiflori Radix Praeparata and Acori Tatarinowii Rhizoma Alleviates Learning and Memory Impairment in Scopolamine-Treated Mice by Regulating Synaptic-Related Proteins” (Frontiers in Pharmacology, 2021).
Where a name gives a salt, the structure may show the parent alone.

Legend:
[1] = test system: ERK1/2/Nrf2/HO-1 pathway; set-up: method as in Lai et al. (2020); details: by modulating the ERK1/2/Nrf2/HO-1 pathway; ref Lai et al. (2020); cited from earlier work
[2] = Pharmacokinetics in rat plasma after oral administration of PA, PMRP or ATR (HPLC-MS and GC-MS); details: for Tmax: rat plasma, mean ± S.D., n = 6; for Plasma concentration after oral PA compared to the level after PMRP or ATR: rats, PA 4.32 g/kg vs PMRP or ATR 2.16 g/kg
Experimental: (§1) Additionally, 18 rats were orally administered PA, PMRP, or ATR once, respectively (6 rats in each group). The doses were 4.32 g/kg for PA, 2.16 g/kg for PMRP or ATR. The whole blood samples were collected at different time points.
(§2) The components of PA were analyzed by HPLC-MS. The samples were separated on a ZORBAX StableBond C18 reversed-phase column (2.1 × 50 mm, 1.8 μm) (Agilent Technologies Co., CA, United States). The autosampler was set at 20 C, and gradient elution was performed with 0.1% formic acid as solvent A and acetonitrile as solvent B. The gradient program was as follows: 0–10 min, 88%–40% A; 10–12 min, 40%–1% A; and 12–15 min, 1% A. The flow rate was set at 0.3 ml min^−1, and the injection volume was 4 μL. The total run time was 15 min for each sample.
(§3) GC-MS analysis was conducted on a 7890A series gas chromatograph coupled to a Model 7,693 autosampler and Model 5975C Inert XL EI MSD with Triple-Axis Detector (Thermo Fisher Scientific). The carrier gas was 99.99% high-purity helium at a flow rate of 1.2 ml/min. Samples were separated on a TG-5MS column (60 × 0.25 mm and 0.25 μm film thickness). The sample volume was 1 μL with a split ratio of 5:1. The oven temperature program was initially set at 100°C for 1 min, then ramped at 10°C/min to 180°C and held for 1 min; ramped at 5°C/min to 210°C and held for 1 min; and ramped at 10°C/min to 260°C and held for 5 min. The total run time was 27 min. The injection port and detector temperatures were 280°C and 300°C, respectively. Electrospray ionization was performed at 70 eV. Selective ion monitoring was set for quantitation with a dwell time of 100 m/ion.
(§4) Male rats (n = 18) were fasted but had free access to water for 12 h prior to administration of PA, PMRP, and ATR (6 rats in each group). Blood samples were collected from the posterior orbital venous plexus of rats before dosing (time 0) and 5, 10, and 30 min and 1, 2, 4, 8, 16, and 24 h after dosing. The samples were immediately centrifuged at 4,500 rpm for 10 min and the separated plasma samples were stored at −80°C until analysis.

[3] = in vivo; details: male, Sprague-Dawley, rat, po; for Tmax: rat plasma, mean ± S.D., n = 6
Experimental: as §1, §2, §3, §4

[4] = test system: BDNF, TrkB, ERK, p-ERK, CREB, and p-CREB proteins in the hippocampus; experiment: Western blot of BDNF/TrkB/ERK/CREB signaling axis components in the hippocampus; details: scopolamine treatment vs control mice
Experimental: The mice were randomly divided into the following eight groups (n = 12 per group): 1) control (normal feeding); 2) model [scopolamine, 4 mg kg^−1⋅day^−1 by intraperitoneal injection (i.p.)]; 3) PAL [scopolamine, 4 mg kg^−1⋅day^−1 i. p. + PA, 1.56 g kg^−1⋅day^−1 by intragastric administration (i.g.)]; 4) PAH (scopolamine, 4 mg kg^−1⋅day^−1 i. p. + PA, 6.24 g kg^−1⋅day^−1 i. g.); 5) PL (scopolamine, 4 mg kg^−1⋅day^−1 i. p. + PMRP, 0.78 g kg^−1⋅day^−1 i. g.); 6) PH (scopolamine, 4 mg kg^−1⋅day^−1 i. p. + PMRP 3.12 g kg^−1⋅day^−1 i. g.); 7) AL (scopolamine, 4 mg kg^−1⋅day^−1 i. p.+ ATR, 0.78 g kg^−1⋅day^−1 i. g.); and 8) AH (scopolamine, 4 mg kg^−1⋅day^−1 i. p. + ATR, 3.12 g kg^−1⋅day^−1 i. g.). […]
Three mice per group were deeply anesthetized with chloral hydrate (320 mg/kg i. p.) 60 min after the behavioral test and perfused through the ascending aorta with PBS. […] The hippocampus tissue was lysed in radioimmunoprecipitation assay buffer containing protease and phosphatase inhibitors; the protein concentration of the lysate was determined with the Bradford assay. […] After three washes with washing buffer and incubation with secondary antibody (1:3,000) for 2 h, protein bands were detected with SuperSignal West Pico Chemiluminescent Substrate (Solarbio, Beijing, China) and the signal intensity of target protein bands was normalized to that of the loading control (actin).

[5] = test system: scopolamine-treated mice; experiment: Morris water maze test in scopolamine-treated mice; details: scopolamine 4 mg/kg i.p. (dementia model); starting from day 3; p < 0.001
Experimental: The mice were randomly divided into the following eight groups (n = 12 per group): 1) control (normal feeding); 2) model [scopolamine, 4 mg kg^−1⋅day^−1 by intraperitoneal injection (i.p.)]; 3) PAL [scopolamine, 4 mg kg^−1⋅day^−1 i. p. + PA, 1.56 g kg^−1⋅day^−1 by intragastric administration (i.g.)]; 4) PAH (scopolamine, 4 mg kg^−1⋅day^−1 i. p. + PA, 6.24 g kg^−1⋅day^−1 i. g.); 5) PL (scopolamine, 4 mg kg^−1⋅day^−1 i. p. + PMRP, 0.78 g kg^−1⋅day^−1 i. g.); 6) PH (scopolamine, 4 mg kg^−1⋅day^−1 i. p. + PMRP 3.12 g kg^−1⋅day^−1 i. g.); 7) AL (scopolamine, 4 mg kg^−1⋅day^−1 i. p.+ ATR, 0.78 g kg^−1⋅day^−1 i. g.); and 8) AH (scopolamine, 4 mg kg^−1⋅day^−1 i. p. + ATR, 3.12 g kg^−1⋅day^−1 i. g.). Mice in each group were orally administered PA, PMRP, or ATR every day for 30 days; after the last gavage, scopolamine was intraperitoneally injected and the Morris water maze experiment was conducted 40 min later for 6 days.
Spatial memory was assessed with the Morris water maze test as previously described [Lan et al. (2012)], with slight modifications. […] Each mouse was tested twice a day for 5 days and the latency to reach the platform was recorded. […] The time that the mouse spent in the target quadrant (ie, where the platform was previously hidden) and the number of times it crossed the platform were measured. […]

[6] = test system: P90RSK and PSD95 in the hippocampus; experiment: Immunohistochemistry of P90RSK and PSD95 in the hippocampus; assay type: in vivo, Kunming mice; details: scopolamine vs control mice
Experimental: The brain was removed and immediately fixed in 4% paraformaldehyde in PBS. […] After quenching endogenous peroxidase and blocking with normal goat serum, the sections were incubated overnight at 4°C with antibodies against P90RSK and PSD95 (both at 1:5,000). The sections were washed with PBS and incubated with secondary antibodies for 2 h at 37°C, and then stained with 3,3′-diaminobenzidine in chromogen solution; they were then counterstained with hematoxylin, dehydrated in ethanol, cleared in xylene, and mounted with Cytoseal (Thermo Fisher Scientific). P90RSK and PSD95 immunoreactivity was measured using Image Pro Plus v6.0 software (Media Cybernetics, Rockville, MD, United States). Brown staining on the cell membrane or in the cytoplasm was represented positive staining, with the staining intensity reflecting the expression levels of P90RSK and PSD95 proteins.

[7] = test system: neurotransmitter levels in the cerebral cortex of scopolamine-treated mice; experiment: HPLC-MS analysis of neurotransmitter content in mouse cortical tissue; assay type: in vivo, Kunming mice; details: scopolamine injection 4 mg/kg i.p. vs control mice
[8] = Chen et al., cited from earlier work
[9] = male, Sprague-Dawley, rat, in vivo, po, 4.32 g/kg
Experimental: as §1, §2, §3, §4

[10] = oral PMRP extract 2.16 g/kg once
[11] = 2.16 g/kg, oral PMRP extract 2.16 g/kg once
[12] = 4.32 g/kg, oral PA extract 4.32 g/kg once
[13] = male, Sprague-Dawley, rat, plasma, po, 2.16 g/kg
[14] = male, Sprague-Dawley, rat, plasma, po, 2.16 g/kg, Tmax, oral ATR extract 2.16 g/kg once
[15] = male, Sprague-Dawley, rat, plasma, po, 4.32 g/kg
[16] = male, Sprague-Dawley, rat, plasma, po, 4.32 g/kg, Tmax, oral PA extract 4.32 g/kg once
[17] = oral ATR extract 2.16 g/kg once

Row | SMILES | Tmax ([2]; oral PA extract 4.32 g/kg once) | AUC(0-inf) ([3]; 2.16 g/kg) | AUC(0-t) ([3]; 2.16 g/kg) | Cmax ([3]; 2.16 g/kg) | half-life ([3]; 2.16 g/kg) | AUC(0-inf) ([3]; 4.32 g/kg) | AUC(0-t) ([3]; 4.32 g/kg) | Cmax ([3]; 4.32 g/kg) | Tmax [3, 12] | AUC(0-inf) [2, 13] | AUC(0-t) [2, 13] | Cmax [2, 13] | half-life [2, 13] | Tmax [2, 14] | AUC(0-inf) [2, 15] | AUC(0-t) [2, 15] | half-life [2, 15] | Tmax [2, 16] | Tmax [2, 17] | Plasma concentration after oral PA compared to the level after PMRP or ATR [2] | other results
1 | Cc1cc(O)c2c(c1)C(=O)c1cc(O)cc(O)c1C2=O [emodin] | 0.472 ± 0.748 h | 7400 ng·h/mL | 847 ± 802 ng·h/mL | 370 ± 288 ng/mL | 3.7 ± 6.83 h | 4160 ng·h/mL | 1810 ± 934 ng·h/mL | 363 ± 122 ng/mL | 0.47 h | – | – | – | – | – | – | – | – | – | – | – | Effect on synaptic impairment [1]: protected against synaptic impairment; Tmax [2, 10]: 2.764 ± 4.056 h; Tmax [3, 11]: 2.76 h; half-life ([3]; 4.32 g/kg): 14 ± 11.8 h
2 | C/C=C/c1ccc(OC)c(OC)c1 [cis-methyl isoeugenol] | 1.583 ± 3.163 h | – | – | – | – | – | – | – | – | 123 ± 30 ng·h/mL | 93.8 ± 20.4 ng·h/mL | 19.4 ± 18.8 ng/mL | 7.49 ± 2.55 h | 3.51 h | 129 ± 45.5 ng·h/mL | 118 ± 45.2 ng·h/mL | 8.1 ± 2.69 h | 1.58 h | 3.514 ± 3.753 h | similar | Cmax [2, 15]: 24.1 ± 4.99 ng/mL
3 | C/C=C\c1cc(OC)c(OC)cc1OC [β-asarone] | 0.347 ± 0.351 h | – | – | – | – | – | – | – | – | 1050 ng·h/mL | 603 ± 281 ng·h/mL | 49.8 ± 16 ng/mL | 10.7 ± 6.94 h | 4.78 h | 744 ± 620 ng·h/mL | 439 ± 209 ng·h/mL | 14 ± 14.8 h | 0.35 h | 4.778 ± 3.777 h | similar | –
4 | CN1[C@@H]2C[C@@H](OC(=O)[C@H](CO)c3ccccc3)C[C@H]1[C@@H]1O[C@@H]12 [Scopolamine, Scopolamine Hydrobromide] | – | – | – | – | – | – | – | – | – | – | – | – | – | – | – | – | – | – | – | – | Levels of BDNF, TrkB, ERK, p-ERK, CREB and p-CREB proteins in the hippocampus [4]: reduced; Time to find the platform vs controls [5]: significantly longer; Immunoreactivity of P90RSK and PSD95 in the hippocampus [6]: reduced; Concentrations of ACh, 5-HT, NE, Epi, Glu and GABA in the cortex [7]: reduced
5 | OCC1OC(Oc2c(O)cc(O)cc2C=Cc2ccc(O)cc2)C(O)C(O)C1O [THSG, 2,3,5,4′-Tetrahydroxystilbene-2-O-β-D-glucoside] | – | – | – | – | – | – | – | – | – | 102 ± 49.7 ng·h/mL | 102 ± 49.4 ng·h/mL | 147 ± 105 ng/mL | 0.17 ± 0.136 h | – | 1630 ng·h/mL | 1520 ng·h/mL | 3.01 ± 3.36 h | 0.81 h | – | increased | Effect on memory ([8]; by modulating ERK1/2 and CREB activation and increasing BDNF and PSD95 levels, ref Hou et al., 2011, Wang et al., Zhou et al., 2012, Shen et al., 2015, 2016): enhanced memory; Tmax ([2]; male, Sprague-Dawley, rat, plasma, po, 2.16 g/kg, Tmax, oral PMRP extract 2.16 g/kg once): 0.39 h; Cmax [2, 15]: 708 ± 281 ng/mL; Tmax ([2]; oral PA extract 4.32 g/kg once, listed as 2,3,5,4′-Tetrahydroxystilbene-2-O-β-glucoside): 0.806 ± 0.695 h; Tmax ([2]; oral PMRP extract 2.16 g/kg once, listed as 2,3,5,4′-Tetrahydroxystilbene-2-O-β-glucoside): 0.389 ± 0.356 h
6 | C/C=C/c1cc(OC)c(OC)cc1OC [α-asarone] | 0.875 ± 0.699 h | – | – | – | – | – | – | – | – | 1040 ng·h/mL | 600 ± 360 ng·h/mL | 73.5 ± 25.9 ng/mL | 11.8 ± 12.6 h | 3.54 h | 1240 ng·h/mL | 1020 ng·h/mL | 8.26 ± 2.7 h | 0.88 h | 3.542 ± 3.736 h | increased | Effect on learning and memory deficits ([8]; ref Limón et al., 2009, Shin et al., 2014, Li et al., 2019, 2020): improved learning and memory deficits; Cmax [2, 15]: 101 ± 30.3 ng/mL
7 | COc1cc(OC)c(OC)cc1C=O [asarylaldehyde] | 0.431 ± 0.442 h | 1550 ng·h/mL | 1440 ng·h/mL | 119 ± 52.2 ng/mL | 7.18 ± 1.23 h | 1970 ± 766 ng·h/mL | 1710 ± 503 ng·h/mL | 200 ± 45 ng/mL | 0.43 h | – | – | – | – | – | – | – | – | – | 2.208 ± 3.217 h | increased | Tmax ([3]; 2.16 g/kg, oral ATR extract 2.16 g/kg once): 2.21 h; half-life ([3]; 4.32 g/kg): 7.38 ± 2.94 h
8 | O=C(O)c1cc(O)c(O)c(O)c1 [gallic acid] | 0.444 ± 0.763 h | 2700 ng·h/mL | 2460 ng·h/mL | 216 ± 47.9 ng/mL | 6.98 ± 2.15 h | 1530 ng·h/mL | 831 ± 497 ng·h/mL | 246 ± 244 ng/mL | 0.44 h | – | – | – | – | – | – | – | – | – | – | similar | T1/2 [9]: 19.532 ± 13.369 h; Tmax [2, 10]: 0.694 ± 0.356 h; Tmax [3, 11]: 0.69 h
